Test results as given in US20020004458A1, “Methods for inducing production of isoflavone levels in plants using nuclear receptor ligands” (priority 2000, published 2002).

Legend:
Assay type in all cases: in vivo
[1] = system: soybean cotyledons (cultivar Williams); assay: Soybean cut cotyledon assay: loading of daidzein conjugate / isoflavone pools; settings: for Percent increase in total daidzein conjugate pools compared to a water control (Table 2) / Percent increase in total daidzein conjugate pools compared to a water control (Table 4): 33 uM, average of two experiments
Method: (§1) The cut cotyledon assay is used to investigate both the ability of the nuclear receptor ligand to activate basal elicitation competency in plants, and to evaluate the ability of a second compound such as the glucan defense elicitor from the fungal pathogen Phytophthora sojae to enhance glyceollin elicitation competency in plants in which the isoflavone pools were “loaded” by the action of the ligand. The level of isoflavones in the cotyledon tissues are measured after the addition of different nuclear receptor ligands to determine the effectiveness of each in inducing the basal production of isoflavones in cotyledon tissues. In such studies, the addition of the nuclear receptor ligand first “primes” the cut cotyledon, i.e., increases the levels of the isoflavone daidzen. That is, the competency for the elicitation of the phytoalexin glyceollin in response to the glucan elicitor from Phytophthora sojae is already partially activated. This means that increases in the isoflavone daidzein, which is the precursor for glyceollin, are usually rapidly shunted into glyceollin when the glucan defense elicitor is added to the system. Thus, the ability of the ligand to enhance glyceollin elicitation competency by “loading” the isoflavone pools can also be measured.
(§2) Cotyledons from 7-8 day old soybean seedlings are removed from the plant and cut on the lower surface to expose subepidermal tissues. A 30 p,L drop of test compound (elicitor and/or loader) is placed on the cut surface. Ten cotyledons are used per treatment and arranged in a petri plate containing a wet filter paper to keep the cotyledons moist. After incubation at room temperature at approximately 200 p.Einsteins of light for 48 hr the cotyledon tissues are harvested for analysis. Tissues for analysis are harvested by cutting a vertical column of cells from the cotyledon using a number 1 cork borer. The column of cells is then subsampled by cutting slices of cells progressively away from the original cut surface. The first section is approximately 4 cell layers thick and the second two are approximately 8 cell layers thick. These allow the examination of proximal and distal effects of treatments, respectively. Tissues are analyzed by HPLC as noted below. Full details of this assay can be found in the publication: Graham, T. L., and Graham, M. Y. 1991. Glyceollin Elicitors Induce Major But Distinctly Different Shifts in Isoflavonoid Metabolism in Local and Distal Cell Populations. Molecular Plant Microbe Interactions 4:60-68, which is specifically incorporated herein by reference.
(§3) High performance liquid chromatography (HPLC) is the . method of choice for determining the levels of isoflavone defense compounds in soybean. With a single HPLC analysis, one gets a complete and quantitative profile of up to 50 or more aromatic compounds, including all the isoflavones and their conjugates and the phytoalexins, including glyceollin. As little as 20 mg of plant tissue is needed and the method can be readily applied to cotyledon, leaf or any soybean tissue. This analytical method allows us to determine the nmoles/gm of each metabolite, which can then readily be processed to compare the percent increase or decrease of a given metabolite in comparison to either water or glucan treated control tissues. Routinely, tissues are extracted in 80% ethanol and subjected to water/acetonitrile gradient elution from a C18 reverse phase HPLC column. Full details of this procedure can be found in the publication: Graham, T. L. 1991. A Rapid, High Resolution High Performance Liquid Chromatography Profiling Procedure for Plant and Microbial Aromatic Secondary Metabolites. Plant Physiology 95:584-593, which is specifically incorporated herein by reference.
(§4) Cotyledons (10 per treatment) from 7 day old Williams variety soybean were treated with a formulation comprising estrogens, estrogen agonists, and peroxisome proliferators. […]

[2] = system: soybean cotyledons (cultivar Williams); assay: Soybean snapped cotyledon assay: loading of isoflavone (daidzein) conjugate pools
Method: The snapped cotyledon assay is a minimal wound assay used to investigate the effects of test compounds in a non-primed background. The assay is performed by snapping cotyledons in two and placing the petiole side down in 0.5% water agar. Ten snapped cotyledons are used per treatment, and the subepidermal cells exposed by snapping are treated with glucan defense elicitor and/or the effector being examined. The cotyledons are incubated in the light for 48 hr as in the cut cotyledon assay. Both proximal (first cell layer) and distal (second and third cell layers) are harvested for analysis by HPLC (see below). Full details of this assay can be found in the publication: Graham, T. L. and Graham, M. Y. 1996. Signaling in soybean phenylpropanoid responses: dissection of primary, secondary and conditioning-effects of light, wounding and elicitor treatments. Plant Physiol. 110:1123-1133, which is specifically incorporated herein by reference.
The snapped cotyledon assay is “naive”. That is, it is not pre-disposed or primed for competency for the elicitation of phytoalexin glyceollin in response to the glucan elicitor. Thus, treatment with the glucan elicitor induces the formation of the isoflavones daidzein and genistein, but very little glyceollin. This is an excellent assay to study the effects of a chemical treatment on isoflavone metabolism by itself or in combination with the glucan. In the absence of the glucan, it gives an excellent picture of the effects of the compound alone on isoflavone metabolism. In the presence of the glucan, it tells us if the test compound can induce elicitation competency for the glyceollin response to the glucan.
as §3
Cotyledons (10 per treatment) from 7 day old Williams variety soybean were treated with a formulation comprising estrogens, estrogen agonists, and peroxisome proliferators. Each NRL was dissolved either in water or first in isopropanol to give a saturated solution followed by rapid dilution in water. […] NRLs were tested over a concentration range of about 10 uM to 1 mM, using serial 3 fold dilutions from 1 mM. NRLs were tested both alone and in the presence of 30 ug/ml of the glucan elicitor from the fungal pathogen Phytophthora sojae. Concentrations of the NRL and glucan noted here are final concentrations on the treated cotyledon.
The exposed surface of each snapped cotyledon was treated with 7 μL of the NRL followed by 7 μL of the glucan or water. Cotyledons were incubated in constant light (200 t;,Einsetins) for 48 hr. At 48 hr, a thin (translucent) section was harvested from the treated cotyledon surface. Sections from the 10 cotyledons for each treatment were pooled and extracted in 80% ethanol (400 μL for each 50 mG fresh weight). The extract was then subjected to HPLC as described above. […]

[3] = system: soybean cotyledons (cultivar Williams); assay: Soybean cut cotyledon assay: potentiation of glyceollin (phytoalexin) elicitation by glucan elicitor; settings: 33 uM, applied immediately before glucan elicitor and 10 uM orthovanadate, 48 hr, average of two experiments
Method: as §1, §2, §3, §4

[4] = system: cotyledons of lima bean, mung bean, green bean, peanuts, and chickpeas; assay: Cut cotyledon assay on legumes other than soybean: increase in isoflavones; settings: ergosterol at 100 p,M; range in each plant species; isoflavones identified by ultraviolet spectra
soybean primary leaves = assay: Soybean leaf infiltration: isoflavone increases after ergosterol treatment; settings: 48 hours, over control
Method: as §3
True leaves of soybean plants are also treated as described above in Example 1. For tests on true leaves of soybean or other plants, two methods are used. In the laboratory a small spot on the leaves is vacuum filtrated using a filter disc platform hooked to a water aspirator. The leaf is placed on the filter disc platform and mild suction applied. A drop of the glucan elicitor and the nuclear receptor ligand formulation is then placed on the exposed surface of the leaf and allowed to infiltrate the tissue through the leaf stomatal pores. For the greenhouse or field, the nuclear receptor ligand is added to a surfactant to emulsify and disperse the ligand. In all of these assays, the tissues are again analyzed by HPLC as described above.
Moreover, the isoflavone formononetin is normally found only as a trace metabolite in soybean tissues. It is commonly found in chickpea. Treatment of soybean leaves with a nuclear receptor ligand, however, caused very significant accumulations of daidzein and formononetin aglycones and genistein conjugates. […] Ergosterol was directly infiltrated into the primary leaves, which were analyzed after 48 hours.

[5] = cut cotyledon assay, Williams cotyledons, concentrations 50-500 p,M
[6] = 33 uM, average of two experiments
[7] = ergosterol 1 micromolar infiltrated into primary leaves
[8] = ergosterol 10 micromolar infiltrated into primary leaves
[9] = ergosterol 100 micromolar infiltrated into primary leaves

| Compound | Range of increase of isoflavones over the concentration range [1, 5] | Percent increase in daidzein conjugate pools compared to a water control (Table 3) [2, 6] | Percent increase in glyceollin elicitation compared to a glucan elicitor control [3] | Percent increase in total daidzein conjugate pools compared to a water control (Table 2) ([1]; cut cotyledon assay) | Percent increase in total daidzein conjugate pools compared to a water control (Table 4) ([1]; cut cotyledon assay) | also measured |
| --- | --- | --- | --- | --- | --- | --- |
| CC(=O)[C@H]1CC[C@H]2[C@@H]3CC=C4C[C@@H](O)CC[C@]4(C)[C@H]3CC[C@]12C [5-pregnenolone] | 5-20% | – | – | – | – | – |
| C[C@]12CC[C@@H]3c4ccc(O)cc4CC[C@H]3[C@@H]1CC[C@@H]2O [Beta-Estradiol, 17-beta-estradiol] | – | +64% | 205% | 64% | 64% | – |
| CC(C)(Oc1ccccc1Cl)C(=O)O [CPMPA, 2-(o-chlorophenoxy)-2-methylpropionic acid] | – | +42% | – | – | – | – |
| CC(C)(Oc1ccc(C2CC2(Cl)Cl)cc1)C(=O)O (centres unmarked) [Ciprofibrate, ciprofibrate] | – | +52% | 199% | 52% | 52% | – |
| O=c1oc2cc(O)ccc2c2oc3cc(O)ccc3c12 [Coumestrol] | – | – | 226% | 54% | 54% | – |
| C/C=C(/C(=C/C)c1ccc(O)cc1)c1ccc(O)cc1 [Dienestrol, dienestrol] | – | +28% | 75% | 28% | 28% | – |
| CC/C(=C(/CC)c1ccc(O)cc1)c1ccc(O)cc1 [Diethylstilbestrol, diethylstilbestrol] | – | – | 86% | 36% | 38% | – |
| CC(C)[C@@H](C)/C=C/[C@@H](C)[C@H]1CC[C@H]2C3=CC=C4C[C@@H](O)CC[C@]4(C)[C@H]3CC[C@]12C [Ergosterol, ergosterol] | – | +60% | 260% | 60% | 60% | Increases in isoflavones [4]: 2-60 fold; Increase in Daidzein Aglycone (soybean primary leaves; [7]): 5X; Increase in Formononetin Aglycone (soybean primary leaves; [7]): 24X; Increase in Genistein Conjugates (soybean primary leaves; [7]): 2X; Increase in Daidzein Aglycone (soybean primary leaves; [8]): 3X; Increase in Formononetin Aglycone (soybean primary leaves; [8]): 27X; Increase in Genistein Conjugates (soybean primary leaves; [8]): 1.1X; Increase in Daidzein Aglycone (soybean primary leaves; [9]): 2.4X; Increase in Formononetin Aglycone (soybean primary leaves; [9]): 4X; Increase in Genistein Conjugates (soybean primary leaves; [9]): None |
| C[C@]12CC[C@@H]3c4ccc(O)cc4CC[C@H]3[C@@H]1C[C@@H](O)[C@@H]2O [Estriol, estriol] | – | +45% | 177% | 45% | 45% | – |
| O=c1c(-c2ccc(O)cc2)coc2cc(O)cc(O)c12 [Genistein, genistein] | – | – | – | – | – | Percent increase in daidzein conjugate pools compared to a water control (Table 3) ([2]; genistein applied as smaller doses on an hourly basis for 8 hours): +54% |
| CC(=O)[C@H]1CC[C@H]2[C@@H]3CCC4=CC(=O)CC[C@]4(C)[C@H]3CC[C@]12C [Progesterone, progesterone] | 20-60% | – | – | – | – | – |
| C[C@H]1CCCC(=O)CCC/C=C/c2cc(O)cc(O)c2C(=O)O1 [Zearalenone, zearalenone] | – | – | 242% | 58% | 58% | – |
| C[C@]12CC[C@@H](O)C[C@@H]1CC[C@@H]1[C@@H]2CC[C@]2(C)C(=O)CC[C@@H]12 [androsterone] | – | – | – | – | – | Range of increase of isoflavones over the concentration range ([1]; in vivo): 30-40% |
| C[C@]12CCC(=O)C=C1CC[C@@H]1[C@@H]2C(=O)C[C@@]2(C)[C@H]1CC[C@]2(O)C(=O)CO [cortisone] | 30-100% | – | – | – | – | – |
| C[C@@H]1C[C@H]2[C@@H]3CCC4=CC(=O)C=C[C@]4(C)[C@@]3(F)[C@@H](O)C[C@]2(C)[C@@]1(O)C(=O)CO [dexamethasone] | 0-10% | – | – | – | – | – |
| C[C@]12CCC(=O)C=C1CC[C@@H]1[C@@H]2[C@@H](O)C[C@@]2(C)[C@H]1CC[C@]2(O)C(=O)CO [hydrocortisone] | 25-50% | – | – | – | – | – |
